From BindingDB's records for doi:10.7270/Q2251GJ9 (The Scripps Research Institute Molecular Screening Center, 2007)

Molecular target: Sphingosine 1-phosphate receptor 1 (Homo sapiens, UniProt P21453)
Assay: S1P1 receptor agonists, dose response, cell-based, agonist mode, 60K MLSMR set (AID 468)
[1] = inactive by the depositor's call

Chain of Sphingosine 1-phosphate receptor 1 (P21453 whole entry): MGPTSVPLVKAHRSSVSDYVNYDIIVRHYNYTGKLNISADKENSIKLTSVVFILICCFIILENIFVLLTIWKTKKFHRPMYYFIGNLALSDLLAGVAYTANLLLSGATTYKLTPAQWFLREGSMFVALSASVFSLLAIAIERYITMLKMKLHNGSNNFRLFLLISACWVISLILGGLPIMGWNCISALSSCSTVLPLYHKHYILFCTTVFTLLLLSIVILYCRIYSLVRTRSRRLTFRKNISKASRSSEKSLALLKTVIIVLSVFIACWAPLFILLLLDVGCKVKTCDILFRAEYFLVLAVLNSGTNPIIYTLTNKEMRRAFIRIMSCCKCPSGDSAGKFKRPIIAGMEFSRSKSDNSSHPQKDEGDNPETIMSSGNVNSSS

Row | Structure (SMILES) | EC50 [µM] | EC50 [1] [µM]
1 | CCOc1ccc(-c2nnc(-c3cccnc3)o2)cc1OCC [2-(3,4-diethoxyphenyl)-5-(3-pyridinyl)-1,3,4-oxadiazole] | 3.28 | 
2 | Cn1c(C(=O)N2CCc3ccccc3C2)cc2oc3ccccc3c21 [2-(3,4-dihydroisoquinolin-2(1H)-ylcarbonyl)-1-methyl-1H-[1]benzofuro[3,2-b]pyrrole] | > 30 | 
3 | COc1ccc(-c2nc3cc(NC(=O)Cc4ccc(OC)c(OC)c4)ccc3o2)cc1 [2-(3,4-dimethoxyphenyl)-N-[2-(4-methoxyphenyl)-1,3-benzoxazol-5-yl]acetamide] | 8.03 | 
4 | Cc1cc(C)n(-c2nc3ccccc3c(=O)n2OCCOc2ccccc2)n1 [2-(3,5-dimethyl-1-pyrazolyl)-3-(2-phenoxyethoxy)-4-quinazolinone] |  | 20
5 | O=C1C2CCCN2C(c2cccnc2)N1c1cccc(Cl)c1 (centres undefined) [2-(3-chlorophenyl)-3-(3-pyridinyl)-5,6,7,7a-tetrahydro-3H-pyrrolo[1,2-c]imidazol-1-one] | > 95.1 | 
6 | COc1ccccc1Oc1ccc2c(c1)C(=O)N(c1cccc(O)c1)C2=O [2-(3-hydroxyphenyl)-5-(2-methoxyphenoxy)isoindole-1,3-dione] | 2.36 | 
7 | O=C(CSC1=NCCS1)Nc1ccnc2ccccc12 [2-(4,5-dihydro-1,3-thiazol-2-ylsulfanyl)-N-quinolin-4-yl-ethanamide] | 2.44 | 
8 | O=C(CSc1ncnc2c1oc1ccccc12)N1CCCc2ccccc21 [2-(4-benzofuro[3,2-d]pyrimidinylthio)-1-(3,4-dihydro-2H-quinolin-1-yl)ethanone] | > 3 | 
9 | N#Cc1nc(-c2ccc(OCc3ccccc3)cc2)oc1NCc1cccnc1 [2-(4-benzoxyphenyl)-5-(3-pyridylmethylamino)oxazole-4-carbonitrile] | 7.92 | 
10 | CN(C)c1oc(-c2ccc(OCc3ccccc3)cc2)nc1C#N [2-(4-benzoxyphenyl)-5-(dimethylamino)oxazole-4-carbonitrile] | 3.22 | 
11 | CNc1oc(-c2ccc(OCc3ccccc3)cc2)nc1C#N [2-(4-benzoxyphenyl)-5-(methylamino)oxazole-4-carbonitrile] | 3.21 | 
12 | Clc1ccc(-c2nc3nc4ccccc4nc3n2Cc2ccco2)cc1 [2-(4-chlorophenyl)-3-(2-furanylmethyl)imidazo[4,5-b]quinoxaline] |  | 25.3
13 | COc1ccccc1Oc1ccc2c(c1)C(=O)N(c1ccc(O)cc1)C2=O [2-(4-hydroxyphenyl)-5-(2-methoxyphenoxy)isoindole-1,3-dione] | 0.217 | 
14 | CCCOc1ccc(-c2nnc(-c3ccncc3)o2)cc1 [2-(4-propoxyphenyl)-5-(4-pyridyl)-1,3,4-oxadiazole] | > 95 | 
15 | O=C(CSc1nnc(Cn2nnc3ccccc32)o1)N(Cc1ccc(F)cc1)c1ccccc1 [2-(5-Benzotriazol-1-ylmethyl-[1,3,4]oxadiazol-2-ylsulfanyl)-N-(4-fluoro-benzyl)-N-phenyl-acetamide] | 5.09 | 
16 | c1ccc(CSc2nnc(-c3cccs3)o2)cc1 [2-(benzylthio)-5-(2-thienyl)-1,3,4-oxadiazole] |  | 20.9
17 | COC(=O)c1ccc2c(=O)n(C3CCCCC3)c(SCC#N)nc2c1 [2-(cyanomethylthio)-3-cyclohexyl-4-keto-quinazoline-7-carboxylic acid methyl ester] | 9.9 | 
18 | CCOC(=O)c1sc2nc(NC(=O)C3CCCCC3)sc2c1C [2-(cyclohexanecarbonylamino)-6-methyl-thieno[2,3-d]thiazole-5-carboxylic acid ethyl ester] | > 30 | 
19 | CCOc1nc(-c2ccccc2)ccc1-c1noc(-c2ccco2)n1 [2-Ethoxy-3-(5-furan-2-yl-[1,2,4]oxadiazol-3-yl)-6-phenyl-pyridine] |  | 16.8
20 | CCCCNc1cc(C)nc(NCc2ccccc2)n1 [2-N-benzyl-4-N-butyl-6-methylpyrimidine-2,4-diamine] | 4.83 | 
21 | COc1ccc(-n2nnnc2S(=O)(=O)CC(=O)N2CCCCC2)cc1 [2-[1-(4-methoxyphenyl)tetrazol-5-yl]sulfonyl-1-piperidin-1-ylethanone] | 5.25 | 

Now from value to molecule:

Row | EC50 [µM] | EC50 [1] [µM] | Structure (SMILES)
22 |  | 10.1 | CN1CCN(C(=O)CSc2nc(-c3cccs3)cc(-c3cccs3)c2C#N)CC1 [2-[2-(4-methylpiperazin-1-yl)-2-oxidanylidene-ethyl]sulfanyl-4,6-dithiophen-2-yl-pyridine-3-carbonitrile]
23 | 5.41 |  | Cc1cc(C(=O)CSc2nc3ccccc3c(=O)n2C)c(C)n1Cc1ccc2c(c1)OCO2 [2-[2-[1-(1,3-benzodioxol-5-ylmethyl)-2,5-dimethyl-pyrrol-3-yl]-2-oxidanylidene-ethyl]sulfanyl-3-methyl-quinazolin-4-one]
24 |  | 17.4 | Cc1cc(C(=O)CN2C(=O)c3ccccc3C2=O)c(C)n1Cc1cccs1 [2-[2-[2,5-dimethyl-1-(2-thenyl)pyrrol-3-yl]-2-keto-ethyl]isoindoline-1,3-quinone]
25 |  | 13.8 | CCOC(=O)Cc1csc(NC(=O)c2ccc(Br)s2)n1 [2-[2-[(5-bromothiophene-2-carbonyl)amino]thiazol-4-yl]acetic acid ethyl ester]
26 |  | 12.2 | CC1CCN(S(=O)(=O)c2ccc3c(c2)oc(=O)n3CC(=O)NCc2ccc3c(c2)OCO3)CC1 [2-[2-keto-6-(4-methylpiperidino)sulfonyl-1,3-benzoxazol-3-yl]-N-piperonyl-acetamide]
27 |  | 57.3 | COc1ccc(OCCCSc2ncccn2)cc1 [2-[3-(4-methoxyphenoxy)propylsulfanyl]pyrimidine]
28 | 4.29 |  | CCOC(=O)CN1C(=O)C(C)(C)Oc2ccc(C(=O)Nc3ccccc3OC)cc21 [2-[3-keto-6-[(2-methoxyphenyl)carbamoyl]-2,2-dimethyl-1,4-benzoxazin-4-yl]acetic acid ethyl ester]
29 | 7.9 |  | Cc1cc(N2CCN(c3nc4ccccc4s3)CC2)n2ncnc2n1 [2-[4-(5-methyl-[1,2,4]triazolo[1,5-a]pyrimidin-7-yl)-1-piperazinyl]-1,3-benzothiazole]
30 | 2.43 |  | Cc1ccc(C(C)C)c(OCc2ccc(-c3nnco3)cc2)c1 [2-[4-[(2-isopropyl-5-methyl-phenoxy)methyl]phenyl]-1,3,4-oxadiazole]
31 | 7.68 |  | O=S1(=O)C=C(Sc2nc3ccccc3s2)c2ccccc21 [2-[(1,1-dioxido-1-benzothien-3-yl)thio]-1,3-benzothiazole]
32 |  | 12 | CCOC(=O)c1sc2nc(NC(=O)C(C)(C)C)sc2c1C [2-[(2,2-dimethyl-1-oxopropyl)amino]-6-methyl-5-thieno[2,3-d]thiazolecarboxylic acid ethyl ester]
33 |  | 41.8 | Clc1ccc(CSc2nnc(-c3ccncc3)o2)c(Cl)c1 [2-[(2,4-dichlorobenzyl)thio]-5-(4-pyridyl)-1,3,4-oxadiazole]
34 |  | 13.9 | N#Cc1nc(COc2ccc(Cl)cc2Cl)oc1N1CCN(c2ccccc2)CC1 [2-[(2,4-dichlorophenoxy)methyl]-5-(4-phenyl-1-piperazinyl)-4-oxazolecarbonitrile]
35 | 9.63 |  | COC(=O)c1sc(NC(=O)c2ccc(OC)cc2OC)nc1C [2-[(2,4-dimethoxybenzoyl)amino]-4-methyl-thiazole-5-carboxylic acid methyl ester]
36 | 0.132 |  | Cc1cc(C=c2sc3nc4ccccc4n3c2=O)c(C)n1-c1ccccn1 [2-[(2,5-dimethyl-1-pyridin-2-yl-pyrrol-3-yl)methylidene]-[1,3]thiazolo[3,2-a]benzimidazol-1-one]
37 | 1.63 |  | Cc1ccccc1-c1nnc(SCc2ccccc2F)o1 [2-[(2-fluorobenzyl)thio]-5-(2-methylphenyl)-1,3,4-oxadiazole]
38 | 1.78 |  | Cc1ccc(-c2nnc(SCc3ccccc3F)o2)cc1 [2-[(2-fluorobenzyl)thio]-5-(4-methylphenyl)-1,3,4-oxadiazole]
39 | 4.52 |  | Cc1cccc(N2CCN(C(=O)CSCc3c(C)noc3C)CC2)c1C [2-[(3,5-dimethyl-1,2-oxazol-4-yl)methylsulfanyl]-1-[4-(2,3-dimethylphenyl)piperazin-1-yl]ethanone]
40 |  | 13.2 | Cc1ccc2nc(NC(=O)CSc3nc4c(c(=O)n3C)SC(C)C4)sc2c1 (centres undefined) [2-[(3,6-dimethyl-4-oxidanylidene-6,7-dihydrothieno[3,2-d]pyrimidin-2-yl)sulfanyl]-N-(6-methyl-1,3-benzothiazol-2-yl)ethanamide]
41 | 5.59 |  | CCn1c(SCC(=O)Nc2nc3ccc(C)cc3s2)nc2c(c1=O)SC(C)C2 (centres undefined) [2-[(3-ethyl-4-keto-6-methyl-6,7-dihydrothieno[3,2-d]pyrimidin-2-yl)thio]-N-(6-methyl-1,3-benzothiazol-2-yl)acetamide]
42 | 3.92 |  | Clc1ccc(CSc2nnc(-c3ccncc3)o2)cc1 [2-[(4-chlorobenzyl)thio]-5-(4-pyridyl)-1,3,4-oxadiazole]
43 | 2.46 |  | Cc1cc(C(=O)CSc2nnc(-c3ccncc3)n2-c2ccccc2)c(C)n1C [2-[(4-phenyl-5-pyridin-4-yl-1,2,4-triazol-3-yl)sulfanyl]-1-(1,2,5-trimethylpyrrol-3-yl)ethanone]
44 | > 10 |  | CC(C)OC(=O)CSc1nc(N)c(C#N)c(-c2cccs2)c1C#N [2-[(6-amino-3,5-dicyano-4-thiophen-2-yl-2-pyridinyl)thio]acetic acid propan-2-yl ester]
45 | 4.92 |  | CC(C)(C)C1CCC2(CC1)C(C#N)=C(SCC(=O)Nc1ccccc1)NC(=O)C2C#N (centres undefined) [2-[(9-tert-butyl-1,5-dicyano-2-oxidanylidene-3-azaspiro[5.5]undec-4-en-4-yl)sulfanyl]-N-phenyl-ethanamide]
46 | 61.2 |  | COCCn1c(C)cc(C(=O)CSc2nc3ccccc3c(=O)[nH]2)c1C [2-[[2-[1-(2-methoxyethyl)-2,5-dimethyl-3-pyrrolyl]-2-oxoethyl]thio]-1H-quinazolin-4-one]
47 | 1.87 |  | COCCn1c(C)cc(C(=O)CSc2nnc(-c3cccnc3)n2-c2ccccc2F)c1C [2-[[4-(2-fluorophenyl)-5-(3-pyridinyl)-1,2,4-triazol-3-yl]thio]-1-[1-(2-methoxyethyl)-2,5-dimethyl-3-pyrrolyl]ethanone]
48 | 10 |  | Cc1ccccc1-n1c(SCC(=O)c2cc(C)n(C)c2C)nnc1-c1ccncc1 [2-[[4-(2-methylphenyl)-5-pyridin-4-yl-1,2,4-triazol-3-yl]sulfanyl]-1-(1,2,5-trimethylpyrrol-3-yl)ethanone]
49 |  | 17.3 | O=C(CSc1nnc(-c2ccc(Cl)cc2)n1Cc1ccco1)c1cccs1 [2-[[5-(4-chlorophenyl)-4-(2-furanylmethyl)-1,2,4-triazol-3-yl]thio]-1-thiophen-2-ylethanone]
